Patent publication US10597380B2, “Pyridazinone-based broad spectrum anti-influenza inhibitors” (Hoffmann-La Roche Inc., priority 2017, dated 2020)

Tested on: Influenza A/WSN/33-Luciferase virus
Assay: microbe, parasite or virus in culture
Format: cell-based
Details: A549, 72 h, luciferase signal three days later, read-out: IC50 antiviral activity (Luciferase reporter assay)

Point of comparison: `COCCCNC(=O)Cn1cccc(Nc2nn(-c3ccc(OC(F)(F)F)cc3)c(=O)c3ccccc23)c1=O` [Example 94, N-(3-methoxypropyl)-2-[2-oxo-3-[[4-oxo-3-[4-(trifluoromethoxy)phenyl]phthalazin-1-yl]amino]-1-pyridyl]acetamide], IC50 45 nM. Against it:
- COC(=O)CCCn1cccc(Nc2nn(-c3ccc(OC(F)(F)F)cc3)c(=O)c3ccccc23)c1=O [Example 73, methyl 4-[2-oxo-3-[[4-oxo-3-[4-(trifluoromethoxy)phenyl]phthalazin-1-yl]amino]-1-pyridyl]butanoate] — within 1.5-fold, 49 nM
- NS(=O)(=O)CCCn1cccc(Nc2nn(-c3ccc(OC(F)(F)F)cc3)c(=O)c3ccccc23)c1=O [Example 74, 3-[2-oxo-3-[[4-oxo-3-[4-(trifluoromethoxy)phenyl]phthalazin-1-yl]amino]-1-pyridyl]propane-1-sulfonamide] — within 1.5-fold, 34 nM
- CN(C)S(=O)(=O)CCCn1cccc(Nc2nn(-c3ccc(OC(F)(F)F)cc3)c(=O)c3ccccc23)c1=O [Example 75, N,N-dimethyl-3-[2-oxo-3-[[4-oxo-3-[4-(trifluoromethoxy)phenyl]phthalazin-1-yl]amino]-1-pyridyl]propane-1-sulfonamide] — 1.8-fold lower, 25 nM
- O=c1c(Nc2nn(-c3ccc(OC(F)(F)F)cc3)c(=O)c3ccccc23)cccn1CCN1CCOCC1 [Example 76, 4-[[1-(2-morpholinoethyl)-2-oxo-3-pyridyl]amino]-2-[4-(trifluoromethoxy)phenyl]phthalazin-1-one] — within 1.5-fold, 34 nM
- O=c1c(Nc2nn(-c3ccc(OC(F)(F)F)cc3)c(=O)c3ccccc23)cccn1CCN1CC(O)(C(F)(F)F)C1 [Example 77, 4-[[1-[2-[3-hydroxy-3-(trifluoromethyl)azetidin-1-yl]ethyl]-2-oxo-3-pyridyl]amino]-2-[4-(trifluoromethoxy)phenyl]phthalazin-1-one] — 2.4-fold higher, 108 nM
- O=c1c(Nc2nn(-c3ccc(OC(F)(F)F)cc3)c(=O)c3ccccc23)cccn1CCN1CCC(O)C1 (stereo not drawn) [Example 78, 4-[[1-[2-(3-hydroxypyrrolidin-1-yl)ethyl]-2-oxo-3-pyridyl]amino]-2-[4-(trifluoromethoxy)phenyl]phthalazin-1-one] — within 1.5-fold, 31 nM
- COC(=O)[C@@H]1CCCN1CCn1cccc(Nc2nn(-c3ccc(OC(F)(F)F)cc3)c(=O)c3ccccc23)c1=O [Example 79, methyl (2S)-1-[2-[2-oxo-3-[[4-oxo-3-[4-(trifluoromethoxy)phenyl]phthalazin-1-yl]amino]-1-pyridyl]ethyl]pyrrolidine-2-carboxylate] — within 1.5-fold, 32 nM
- CN(C)CCn1cncc(Nc2nn(-c3ccc(OC(F)(F)F)cc3)c(=O)c3ccccc23)c1=O [Example 80, 4-[[1-[2-(dimethylamino)ethyl]-6-oxo-pyrimidin-5-yl]amino]-2-[4-(trifluoromethoxy)phenyl]phthalazin-1-one] — 1.5-fold higher, 68 nM
- CCc1ccc2c(=O)n(-c3ccc(OC(F)(F)F)cc3)nc(Nc3cccn(C)c3=O)c2c1 [Example 81, 6-ethyl-4-[(1-methyl-2-oxo-3-pyridyl)amino]-2-[4-(trifluoromethoxy)phenyl]phthalazin-1-one] — 10-fold higher, 465 nM
- CCc1ccc2c(Nc3cccn(C)c3=O)nn(-c3ccc(OC(F)(F)F)cc3)c(=O)c2c1 [Example 82, 7-ethyl-4-[(1-methyl-2-oxo-3-pyridyl)amino]-2-[4-(trifluoromethoxy)phenyl]phthalazin-1-one] — 1.8-fold higher, 79 nM
- C=Cc1ccc2c(=O)n(-c3ccc(OC(F)(F)F)cc3)nc(Nc3cccn(C)c3=O)c2c1 [Example 83, 4-[(1-methyl-2-oxo-3-pyridyl)amino]-2-[4-(trifluoromethoxy)phenyl]-6-vinyl-phthalazin-1-one] — 33-fold higher, 1490 nM
- C=Cc1ccc2c(Nc3cccn(C)c3=O)nn(-c3ccc(OC(F)(F)F)cc3)c(=O)c2c1 [Example 84, 4-[(1-methyl-2-oxo-3-pyridyl)amino]-2-[4-(trifluoromethoxy)phenyl]-7-vinyl-phthalazin-1-one] — 3.9-fold higher, 176 nM
- CCn1cncc(Nc2nn(-c3ccc(OC(F)(F)F)cc3)c(=O)c3c2CCN(C(C)=O)C3)c1=O [Example 85, 6-acetyl-1-[(1-ethyl-6-oxo-pyrimidin-5-yl)amino]-3-[4-(trifluoromethoxy)phenyl]-7,8-dihydro-5H-pyrido[3,4-d]pyridazin-4-one] — within 1.5-fold, 56 nM
- CCCn1cncc(Nc2nn(-c3ccc(OC(F)(F)F)cc3)c(=O)c3c2CCN(C(C)=O)C3)c1=O [Example 86, 6-acetyl-1-[(6-oxo-1-propyl-pyrimidin-5-yl)amino]-3-[4-(trifluoromethoxy)phenyl]-7,8-dihydro-5H-pyrido[3,4-d]pyridazin-4-one] — within 1.5-fold, 34 nM
- CC(=O)N1CCc2c(Nc3cc(F)cn(C)c3=O)nn(-c3ccc(OC(F)(F)F)cc3)c(=O)c2C1 [Example 87, 6-acetyl-1-[(5-fluoro-1-methyl-2-oxo-3-pyridyl)amino]-3-[4-(trifluoromethoxy)phenyl]-7,8-dihydro-5H-pyrido[3,4-d]pyridazin-4-one] — 2.6-fold lower, 17 nM
- O=C(Cn1cccc(Nc2nn(-c3ccc(OC(F)(F)F)cc3)c(=O)c3ccccc23)c1=O)N1CCOCC1 [Example 88, 4-[[1-(2-Morpholino-2-oxo-ethyl)-2-oxo-3-pyridyl]amino]-2-[4-(trifluoromethoxy)phenyl]phthalazin-1-one] — 2-fold lower, 23 nM
- CN(C)C(=O)Cn1cccc(Nc2nn(-c3ccc(OC(F)(F)F)cc3)c(=O)c3ccccc23)c1=O [Example 89, N,N-dimethyl-2-[2-oxo-3-[[4-oxo-3-[4-(trifluoromethoxy)phenyl]phthalazin-1-yl]amino]-1-pyridyl]acetamide] — within 1.5-fold, 38 nM
- CC(C)NC(=O)Cn1cccc(Nc2nn(-c3ccc(OC(F)(F)F)cc3)c(=O)c3ccccc23)c1=O [Example 90, N-isopropyl-2-[2-oxo-3-[[4-oxo-3-[4-(trifluoromethoxy)phenyl]phthalazin-1-yl]amino]-1-pyridyl]acetamide] — 3.6-fold higher, 162 nM
- CNC(=O)Cn1cccc(Nc2nn(-c3ccc(OC(F)(F)F)cc3)c(=O)c3ccccc23)c1=O [Example 91, N-methyl-2-[2-oxo-3-[[4-oxo-3-[4-(trifluoromethoxy)phenyl]phthalazin-1-yl]amino]-1-pyridyl]acetamide] — within 1.5-fold, 41 nM
- O=C(Cn1cccc(Nc2nn(-c3ccc(OC(F)(F)F)cc3)c(=O)c3ccccc23)c1=O)NCCO [Example 92, N-(2-hydroxyethyl)-2-[2-oxo-3-[[4-oxo-3-[4-(trifluoromethoxy)phenyl]phthalazin-1-yl]amino]-1-pyridyl]acetamide] — 4-fold higher, 178 nM
- CN(C)CCNC(=O)Cn1cccc(Nc2nn(-c3ccc(OC(F)(F)F)cc3)c(=O)c3ccccc23)c1=O [Example 93, N-[2-(dimethylamino)ethyl]-2-[2-oxo-3-[[4-oxo-3-[4-(trifluoromethoxy)phenyl]phthalazin-1-yl]amino]-1-pyridyl]acetamide] — 3.7-fold higher, 166 nM
- CNC(=O)CCn1cccc(Nc2nn(-c3ccc(OC(F)(F)F)cc3)c(=O)c3ccccc23)c1=O [Example 95, N-methyl-3-[2-oxo-3-[[4-oxo-3-[4-(trifluoromethoxy)phenyl]phthalazin-1-yl]amino]-1-pyridyl]propanamide] — 2.3-fold higher, 102 nM
- CN(C)C(=O)CCn1cccc(Nc2nn(-c3ccc(OC(F)(F)F)cc3)c(=O)c3ccccc23)c1=O [Example 96, N,N-dimethyl-3-[2-oxo-3-[[4-oxo-3-[4-(trifluoromethoxy)phenyl]phthalazin-1-yl]amino]-1-pyridyl]propanamide] — within 1.5-fold, 42 nM
- CNC(=O)CCCn1cccc(Nc2nn(-c3ccc(OC(F)(F)F)cc3)c(=O)c3ccccc23)c1=O [Example 97, N-methyl-4-[2-oxo-3-[[4-oxo-3-[4-(trifluoromethoxy)phenyl]phthalazin-1-yl]amino]-1-pyridyl]butanamide] — 5-fold lower, 9 nM
- CN(C)C(=O)CCCn1cccc(Nc2nn(-c3ccc(OC(F)(F)F)cc3)c(=O)c3ccccc23)c1=O [Example 98, N,N-dimethyl-4-[2-oxo-3-[[4-oxo-3-[4-(trifluoromethoxy)phenyl]phthalazin-1-yl]amino]-1-pyridyl]butanamide] — 4.5-fold lower, 10 nM
- CNC(=O)C(C)(C)Cn1cccc(Nc2nn(-c3ccc(OC(F)(F)F)cc3)c(=O)c3ccccc23)c1=O [Example 99, N,2,2-trimethyl-3-[2-oxo-3-[[4-oxo-3-[4-(trifluoromethoxy)phenyl]phthalazin-1-yl]amino]-1-pyridyl]propanamide] — 6.5-fold higher, 291 nM
- CN(C)C(=O)C(C)(C)Cn1cccc(Nc2nn(-c3ccc(OC(F)(F)F)cc3)c(=O)c3ccccc23)c1=O [Example 100, N,N,2,2-tetramethyl-3-[2-oxo-3-[[4-oxo-3-[4-(trifluoromethoxy)phenyl]phthalazin-1-yl]amino]-1-pyridyl]propanamide] — within 1.5-fold, 36 nM
- CC(C)(Cn1cccc(Nc2nn(-c3ccc(OC(F)(F)F)cc3)c(=O)c3ccccc23)c1=O)C(N)=O [Example 101, 2,2-dimethyl-3-[2-oxo-3-[[4-oxo-3-[4-(trifluoromethoxy)phenyl]phthalazin-1-yl]amino]-1-pyridyl]propanamide] — 2.4-fold higher, 109 nM
- CNC(=O)COCCn1cccc(Nc2nn(-c3ccc(OC(F)(F)F)cc3)c(=O)c3ccccc23)c1=O [Example 102, N-methyl-2-[2-[2-oxo-3-[[4-oxo-3-[4-(trifluoromethoxy)phenyl]phthalazin-1-yl]amino]-1-pyridyl]ethoxy]acetamide] — within 1.5-fold, 37 nM
- CN(C)C(=O)COCCn1cccc(Nc2nn(-c3ccc(OC(F)(F)F)cc3)c(=O)c3ccccc23)c1=O [Example 103, N,N-dimethyl-2-[2-[2-oxo-3-[[4-oxo-3-[4-(trifluoromethoxy)phenyl]phthalazin-1-yl]amino]-1-pyridyl]ethoxy]acetamide] — within 1.5-fold, 38 nM
- CNC(=O)Cn1cccc(Nc2nn(-c3ccc(OC(F)(F)F)cc3)c(=O)c3c2CCCC3)c1=O [Example 104, N-methyl-2-[2-oxo-3-[[4-oxo-3-[4-(trifluoromethoxy)phenyl]-5,6,7,8-tetrahydrophthalazin-1-yl]amino]-1-pyridyl]acetamide] — within 1.5-fold, 39 nM
- CNC(=O)CCCn1cccc(Nc2nn(-c3ccc(OC(F)(F)F)cc3)c(=O)c3c2CCC3)c1=O [Example 105, N-methyl-4-[2-oxo-3-[[4-oxo-3-[4-(trifluoromethoxy)phenyl]-6,7-dihydro-5H-cyclopenta[d]pyridazin-1-yl]amino]-1-pyridyl]butanamide] — 3-fold lower, 15 nM
